In the NIST ThermoML archive (doi:10.1016/j.jct.2011.11.004):
Several values for one entry are separate records, joined by “and”; a condition that tells them apart may be missing. Equal entries are not always repeated.

Conditions: Liquid, Transpiration method

CN(C)CCCN(C)C [N,N,N',N'-tetramethyl-1,3-propanediamine]
Conditions	vapor or sublimation pressure
273.5 K	0.1509 kPa and 0.1417 kPa
274.2 K	0.1541 kPa
275 K	0.1633 kPa
275.6 K	0.1714 kPa
276.1 K	0.1754 kPa
276.6 K	0.1837 kPa
277.1 K	0.191 kPa
278.4 K	0.2056 kPa
279.2 K	0.2168 kPa
281.1 K	0.2546 kPa
283.4 K	0.2873 kPa and 0.3004 kPa
285.8 K	0.3528 kPa
287.6 K	0.4012 kPa
289 K	0.455 kPa
294.3 K	0.6329 kPa
295.7 K	0.6783 kPa
299.2 K	0.8136 kPa and 0.8194 kPa
300.8 K	0.9386 kPa
304.3 K	1.143 kPa
305.8 K	1.227 kPa and 1.226 kPa
309.1 K	1.435 kPa
310.8 K	1.654 kPa
310.9 K	1.663 kPa
315.6 K	2.117 kPa and 2.069 kPa and 2.116 kPa
323.1 K	3.214 kPa

CCN(CC)CCCN [N,N-diethylpropane-1,3-diamine]
Conditions	vapor or sublimation pressure
277.2 K	0.03765 kPa
279.1 K	0.04448 kPa
280.2 K	0.04785 kPa
283.2 K	0.06153 kPa
286.2 K	0.07622 kPa
287.7 K	0.08442 kPa
288.2 K	0.09379 kPa
289.2 K	0.09614 kPa
291.1 K	0.1087 kPa and 0.1173 kPa
292.1 K	0.1195 kPa
293.2 K	0.1316 kPa
295.2 K	0.1494 kPa and 0.1591 kPa
297.2 K	0.17 kPa
297.3 K	0.1835 kPa and 0.1811 kPa
297.4 K	0.1872 kPa
297.5 K	0.1799 kPa
298.2 K	0.1935 kPa
299.4 K	0.2021 kPa
299.5 K	0.2132 kPa
301.2 K	0.2397 kPa
303.1 K	0.274 kPa and 0.2527 kPa
303.3 K	0.2637 kPa
305.1 K	0.3138 kPa

CN(C)CCCN [N,N-dimethyl-1,3-propanediamine]
Conditions	vapor or sublimation pressure
273.5 K	0.1753 kPa
273.8 K	0.1802 kPa
274.2 K	0.1875 kPa
275.8 K	0.2076 kPa
275.9 K	0.2029 kPa
276.4 K	0.2181 kPa
277.8 K	0.2407 kPa
278.1 K	0.2481 kPa
278.4 K	0.2539 kPa
281.1 K	0.2962 kPa
281.4 K	0.3109 kPa
283.4 K	0.3594 kPa and 0.3558 kPa and 0.3618 kPa
285.8 K	0.4176 kPa
286.2 K	0.4454 kPa
288.1 K	0.5012 kPa and 0.4936 kPa
288.7 K	0.5167 kPa
288.8 K	0.5086 kPa
289.2 K	0.5356 kPa and 0.538 kPa
291.7 K	0.628 kPa
292.1 K	0.6355 kPa and 0.6539 kPa
293 K	0.6977 kPa
294.9 K	0.7794 kPa
295.2 K	0.8075 kPa
296.9 K	0.8821 kPa
297.8 K	0.9313 kPa
298.2 K	0.981 kPa
298.9 K	1.011 kPa
299.7 K	1.058 kPa

CNCCCN [N-methyl-1,3-diaminopropane]
Conditions	vapor or sublimation pressure [kPa]
276.2 K	0.09113
279.3 K	0.1163
282.3 K	0.1481
285.2 K	0.1855
288.2 K	0.2287
291.2 K	0.2973
292.7 K	0.3328
294.1 K	0.3667
297.1 K	0.4634
298.8 K	0.5298
300.2 K	0.5889
303.2 K	0.7223
